Paper PMC7504215, “Copper(II) Complexes with Mixed Heterocycle Ligands as Promising Antibacterial and Antitumor Species” (Molecules, 2020)
Read-outs that look alike come from different tables or passages of the source.

Tests used:
P. aeruginosa 27853 = assay: MIC assay, liquid medium microdilution (planktonic growth); format: cell-based, Pseudomonas aeruginosa; conditions: P. aeruginosa 27853, 24 h at 37 °C
Procedure: (§1) The antibacterial assays were performed on Gram-negative (Escherichia coli ATCC 25922, E. coli 5, Pseudomonas aeruginosa ATCC 27853, P. aeruginosa ATCC 9027) and Gram-positive (Staphylococcus aureus ATCC 25923, S. aureus ATCC 6538, MRSA (Meticillin-resistant S. aureus) 388, ATCC, American Type Culture Collection) bacterial strains. Microbial suspensions (1.5 × 10^8 CFU/mL; colony forming units (CFU)) corresponding to 0.5 McFarland density obtained from 15 to 18-h bacterial cultures developed on solid media were used. The antimicrobial activity was tested on Mueller–Hinton agar medium.
(§2) The quantitative assay of the antimicrobial activity was performed by the liquid medium microdilution method, in 96-well multi-well plates, to establish the minimal inhibitory concentration (MIC). For this purpose, serial two-fold dilutions of the compounds ranging between 1.000 and 1.95 μg/mL were performed in a 200 μL volume of broth and each well was seeded with 50 μL microbial inoculums. Sterility control (wells containing only culture medium) and culture controls (wells containing culture medium seeded with the microbial inoculum) were used. The influence of the DMSO solvent was also quantified in a series of wells containing DMSO, diluted accordingly with the dilution scheme used for the complexes. The plates were incubated for 24 h at 37 °C, and MIC values were considered as the lowest concentration of the tested compound that inhibited the visible growth of the microbial overnight cultures.

P. aeruginosa 9027 = assay: as above; format: cell-based, Pseudomonas aeruginosa; conditions: P. aeruginosa 9027 (multi-drug-resistant), 24 h at 37 °C
Procedure: as §1, §2

MRSA = assay: as above; format: cell-based, Staphylococcus aureus; conditions: 24 h at 37 °C
Procedure: as §1, §2

S. aureus 25923 = assay: as above; format: cell-based, Staphylococcus aureus; conditions: S. aureus 25923, 24 h at 37 °C
Procedure: as §1, §2

S. aureus 6538 = assay: as above; format: cell-based, Staphylococcus aureus; conditions: S. aureus 6538, 24 h at 37 °C
Procedure: as §1, §2

[1] = system: B16 (melanoma) tumor cells; assay: MTT cell viability assay; format: cell-based, Mouse
Procedure: (§3) The cytotoxicity of ligand and copper(II) complexes was tested on normal BJ cell as well as on B16 (melanoma) tumor cells, which were grown for 48 h in culture medium containing the tested complexes in 0–25 μg/mL concentration range.
(§4) Human fibroblast cells (BJ-ATCC CRL-2522, Manassas, VA, USA) were grown in minimal essential medium (MEM) supplemented with 2 mM L-Glutamine, 10% fetal calf serum (FCS), 100 units/mL of penicillin and 100 µg/mL of streptomycin at 37 °C in a humidified incubator under an atmosphere containing 5% CO2. Mouse melanoma cells (B16-ATCC CRL-6475, Manassas, VA, USA) were grown in DMEM (Dulbecco’s Modified Eagle Medium) supplemented with similar reagents as MEM. All cell cultivation media and reagents were purchased from Biochrom AG (Berlin, Germany) and Sigma-Aldrich (Darmstadt, Germany).
(§5) Cell viability was evaluated using 3-(4,5-dimethylthiazol-2-yl)-2,5-diphenyltetrazolium bromide (MTT) assay, as described previously. First, the cells were seeded in 96-well plates (20,000 cells/well) and cultured for 24 h in medium. After overnight incubation, the medium was changed and the investigated sample in concentration varying from […] was added for 24 h. The negative control was represented by cells cultivated in medium without the investigated compounds. Following incubation, the medium was changed and the MTT solution was added to each well to a final concentration of 1 mg/mL and incubated for additional 4 h, at 37 °C. Finally, the medium was collected and DMSO was used to dissolve the insoluble formazan product. The absorbance of the samples was recorded at 570 nm using a plate reader Mithras 940 (Berthold). The data were corrected for the background and the percentage of viable cells was obtained using the equation:Cell viability = [(A570 of treated cells)/(A570 of untreated cells)] × 100%
(§6) The half-maximal inhibitory concentration (IC50) was determined by fitting the data with a logistical sigmoidal equation using the software Origin 8.1 from Microcal Inc. (Los Angeles, CA, USA).

[2] = system: normal BJ cell (human fibroblast); assay: MTT cell viability assay; format: cell-based
Procedure: as §3, §4, §5, §6

[3] = system: human red blood cells (hRBCs); assay: Hemolytic activity (adapted ASTM F 756-00); format: cell-based; conditions: 25 µg/mL, 4 h at 37 °C, threshold 5% (ASTM F 756-00)
Procedure: The hemolytic activity of the compounds was determined using an adapted protocol of ASTM F 756–00 standard based on hemoglobin release from human red blood cells (hRBCs) resulting after cell lyses. Briefly, the blood samples were collected from healthy volunteers, diluted to a concentration of hemoglobin ~10 mg/mL with phosphate buffer saline (PBS) and then incubated with various concentrations of compounds for 4 h at 37 °C. After 4 h, the cells were centrifuged, the supernatant was collected, transferred into 96-well tissue culture plates and mixed with Drabkin reagent, which converts hemoglobin to cyanmethemoglobin (absorption peak at 540 nm). After 15 min, the absorbance of the samples was read at 570 nm using a plate reader. The obtained data was background corrected and used to calculate the hemolytic index as percentage of the hemoglobin released after the treatment with the tested compounds, relative to control samples. The hRBCs in PBS and distilled water were used as negative and positive controls.

λ-DNA = assay: UV-Vis absorption titration with DNA; format: binding, bacteriophage lambda; conditions: 3 μM complex, increasing λ-DNA, Tris/HCl/NaCl buffer pH 8
Procedure: To determine whether compounds have the capacity to interact with DNA, 48,500 base-pairs of genomic DNA from bacteriophage lambda (λ-DNA, Promega. Madison USA) was used. A stock solution of 10 µM λ-DNA (base-pair concentration) was prepared in 10 mM Tris/HCl buffer containing 1 mM NaCl, pH 8.
The UV-Vis absorption titration experiments were done maintaining constant the complex concentration (3 µM) and increasing the concentration of λ-DNA, in Tris-HCl/NaCl buffer solution, at room temperature, until a saturation state was achieved. After DNA addition, the solutions were allowed to equilibrate for 5 min at room temperature. The UV-Vis absorption spectra were recorded with a Jasco V-630 spectrophotometer, using a 10 mm quartz cell. Stock solutions of compounds were prepared in DMSO (1 mM) and diluted to 3 µM in 10 mM Tris/HCl containing 1 mM NaCl, pH 8.

[4] = B16 cells, 48 h, MTT, read-out: IC50 B16 Cells 48 h

Work on `Cc1cc(-c2ccccc2)nc2ncnn12.[Cu+2].[O-][Cl+3]([O-])([O-])[O-].[O-][Cl+3]([O-])([O-])[O-].c1cnc2c(c1)ccc1cccnc12.c1cnc2c(c1)ccc1cccnc12` [(2), [Cu(phen)2(pmtp)](ClO4)2] yielded an MIC (P. aeruginosa 27853) of 90 µM, an MIC (P. aeruginosa 9027) of 90 µM and an MIC (MRSA) of 50 µM. For the same molecule, the MIC (S. aureus 25923) was 10 µM, the MIC (S. aureus 6538) was 90 µM and the “IC50 B16 Cells 24 h” value ([1]; B16 cells, 24 h, MTT) was 6.25 µg/mL. The IC50 ([1]; B16 cells, 24 h, MTT, read-out: IC50 B16 Cells 24 h) was 7.5 µM, the “IC50 B16 Cells 48 h” value ([1]; B16 cells, 48 h, MTT) was 3.72 µg/mL and the IC50 [1, 4] was 4 µM. For the same molecule, the “IC50 BJ Cells 24 h” value ([2]; BJ cells, 24 h, MTT) was 5.98 µg/mL, the IC50 ([2]; BJ cells, 24 h, MTT, read-out: IC50 BJ Cells 24 h) was 7 µM and the “IC50 BJ Cells 48 h” value ([2]; BJ cells, 48 h, MTT) was 3.30 µg/mL. For the same molecule, the IC50 ([2]; BJ cells, 48 h, MTT, read-out: IC50 BJ Cells 48 h) was 4 µM, the Hemolysis [3] was 0.77 ± 0.14% and the “Change of UV absorption spectrum on binding to λ-DNA” value (λ-DNA) was “hypochromism observed for the band at 270 nm”.
For `Cc1cc(-c2ccccc2)nc2ncnn12.[Cu+2].[O-][Cl+3]([O-])([O-])[O-].[O-][Cl+3]([O-])([O-])[O-].c1ccc(-c2ccccn2)nc1.c1ccc(-c2ccccn2)nc1` [(1), [Cu(bpy)2(pmtp)](ClO4)2], the MIC (P. aeruginosa 27853) was 400 µM, the MIC (P. aeruginosa 9027) was 400 µM and the MIC (MRSA) was 400 µM. The MIC (S. aureus 25923) was 400 µM, the MIC (S. aureus 6538) was 400 µM and the “Effect on viability of B16 cells” value ([1]; 24 h of treatment, 0–25 μg/mL) was “did not affect the viability of B16 cells”. For the same molecule, the “IC50 B16 Cells 48 h” value ([1]; B16 cells, 48 h, MTT) was 15.46 µg/mL, the IC50 [1, 4] was 20 µM and the “Viability of BJ cells” value ([2]; 48 h, highest tested concentration (0–25 μg/mL range)) was 70%. The Hemolysis [3] was 0.59 ± 0.18% and the “Change of UV absorption spectrum on binding to λ-DNA” value (λ-DNA) was “decrease in the absorption intensity of the band located at 290 nm”.
